Earlier results as cited in patent US20200308123A1, “Novel formulation of metaxalone” (ICEUTICA PTY LTD., priority 2009, published 2020).
Like-named read-outs stand apart in the source and are kept apart here.

Tests used:
[1] = test system: major CYP enzymes such as CYP1A2, CYP2A6, CYP2B6, CYP2C8, CYP2C9, CYP2C19, CYP2D6, CYP2E1, and CYP3A4
[2] = test system: major CYP enzymes such as CYP1A2, CYP2B6, and CYP3A4; settings: in vitro
[3] = test system: Hepatic Cytochrome P450 enzymes

lipophilicity (log P): 2.42 | solubility (in 96% ethanol): soluble | solubility (in chloroform): freely soluble | solubility (in ether): practically insoluble | solubility (in methanol): soluble | solubility (in water): practically insoluble | inhibition of major CYP enzymes [1]: does not significantly inhibit | induction of major CYP enzymes [2]: does not significantly induce
SMILES: Cc1cc(C)cc(OCC2CNC(=O)O2)c1 (stereo not drawn) [Metaxalone]
CYP enzymes that appear to metabolize metaxalone [3]: CYP1A2, CYP2D6, CYP2E1, and CYP3A4 and, to a lesser extent, CYP2C8, CYP2C9, and CYP2FC19
